Laboratory results from US8354381B2, “Peptide compositions for oral care systems” (E I du Pont de Nemours and Company, priority 2009, dated 2013).
Where no end group is shown, it is not given here. The star is where a group is joined. Biotin = O=C1N[C@H]2[C@H](CS[C@H]2CCCCC(=O)*)N1

Columns and labels:
[1] = test system: pellicle coated bovine enamel; assay: Phage ELISA of brushed 8 hr pellicle candidates, screened with 30 min in vivo pellicle (Example 8); format: binding, human; conditions: 10^11 pfu phage, 30 min in vivo pellicle on bovine enamel, normalized to DenP3
Description: (§1) A total of 18 selected phage candidates were used in a phage ELISA Experiment. Purified phage lysates were used for binding to pellicle coated bovine enamel using an anti-M13 phage antibody conjugated to horseradish-peroxidase, followed by the addition of chromogenic agent TMB. The plates were read at A450 nm.
The wells were rinsed 2 times with wash buffer consisting of PBST. The wells were filled with 1 mL of 10^11 pfu purified phage stock which was prepared by diluting in blocking buffer. […] The non-binding phage was removed by washing 5 times with PBST. Then, 500 μL of horseradish peroxidase/anti-M13 antibody conjugate (Amersham USA, Piscataway, N.J.), diluted 1:500 in the blocking buffer, was added and incubated for 45 min at room temperature. The conjugate solution was removed and was washed 5 times with PBST.

[2] = Phage ELISA, bovine enamel-binding assay; conditions: over 10^10 pfu phage, unpolished bovine enamel, A450
Description: A total of 11 selected phage candidates (Example 3) was used in a phage ELISA experiment. Purified phage lysates were used for binding to the enamel blocks using an anti-M13 phage antibody conjugated to horseradish-peroxidase, followed by the addition of chromogenic agent TMB. The plates were read at A450 nm.
For each phage candidate to be tested, the polished and unpolished enamel blocks were incubated for 1 h at room temperature with 200 μL of blocking buffer, consisting of 2% non-fat dry milk (Schleicher & Schuell, Inc.) in TBS. […] The tube was rinsed 6 times with wash buffer consisting of TBST-0.05%. The wells were filled with 200 μL of TBST-0.5% containing 1 mg/mL BSA and then 10 μL (over 10^10 pfu) of purified phage stock was added. The samples were incubated at room temperature for 60 min with slow shaking. The non-binding phage was removed by washing 6 times with TBST-0.5%. […] The conjugate solution was removed and was washed 6 times with TBST-0.5%. […] BoEn P means bovine polished enamel and BoEn means bovine enamel.

[3] = Peptide-mediated deposition of Co-NTA beads on bovine enamel, SEM; format: binding; conditions: 20 μM peptide; for Particles per um^2 at 5000X: then Co-NTA TALON beads, SEM at 5000X
Source text: Bovine enamel incisors were obtained from SE Dental (Baton Rouge, La.). Teeth were sectioned and cut into enamel slabs approx. 5 mm on each side using a DREMEL® rotary (Robert Bosch LLC, Farmington Hills, Mich.) saw with a diamond blade. The enamel slabs were cleaned and embedded in a well plate contained molding material so as to only expose the enamel surface in the well.
Polystyrene beads with cobalt-NTA coating (DYNABEADS® TALON®) were obtained from Invitrogen (item#101.02D) as a slurry of 40 mg/mL. The slurry (50 μL; 2 mg beads) was resuspended and washed with 700 μL of binding buffer (50 mM sodium phosphate, pH 8.0, 300 mM NaCI, 0.01% TWEEN® 20) in preparation for His6 binding.
Peptides were dissolved in phosphate buffered saline (Pierce, pH 7.2) at a concentration of 20 μM. Peptide solution (500 μL) was placed in each well containing an enamel slab. Enamel slabs exposed to only PBS in this step were used as a control. Samples were incubated with peptide solution with gentle agitation for 30 min. The peptide solution and PBS were removed from the well plate and each well was rinsed 3 times with repeated additions of PBS. TALON® beads (50 μL) were added to each well and incubated with gentle agitation for 30 min. The TALON® solution was removed and the samples were washed three times with the same binding buffer.
Each enamel sample was removed from the well plate and rinsed again with buffer. […] The enamel slabs were further examined by Electron Microscopy (Hitachi TM-1000 Tabletop SEM Microscope) at 1000×, 2500× and 5000× magnification. […] Little to no beads were found on the no peptide control. […]

[4] = test system: pellicle coated enamel substrates; conditions: 20 μM biotinylated peptide, streptavidin-HRP, normalized to DenP03, three replicates
Description: A total of 20 synthetic peptides were manufactured using sequences obtained from Table 6. Peptides were obtained from SynBioSci Corp. (Livermore, Calif.) and included an additional sequence (SSRP; SEQ ID NO: 118) at the N-terminus and biotin labeled lysine at the C-terminus.
Enamel substrates were cut into approximately 7 mm squares and mounted on wax mounting for incubation in the mouth for 30 min to form a pellicle coated surface. The pellicle coated enamel substrates were removed from the wax backing and placed in well plates with the pellicle surface exposed as in Example 5. Each pellicle coated substrate was incubated for 1 h at room temperature (˜22° C.) with 1 mL of blocking buffer, consisting of 1 mg/mL BSA in PBST (Pierce BUPH™ #28372 with 0.1% TWEEN® 20). The blocking buffer was removed by aspirating the liquid out of each well. The tube was rinsed 2 times with wash buffer consisting of PBST. The wells were filled with 500 μL of 20 μM peptide solution which was prepared by diluting in blocking buffer. The samples were incubated for 30 min with slow shaking at 37° C. The non-binding peptide was removed by washing 6 times with PBST. Then, 500 μL of horseradish peroxidase/streptavidin conjugate (Pierce #22127), diluted 1:2000 in PBST, was added and incubated for 1 h at room temperature (˜22° C.). The conjugate solution was removed and was washed 4 times with PBST.
Each enamel substrate was removed from the well and washed again in a 15-mL test tube with 10 mL of PBST. Each enamel substrate was then mounted in a clean well plate with only the enamel surface exposed. A 1:1 solution of TMB substrate and H2O2 (200 μL) was added to each well and the color was allowed to develop for between 10 to 20 min, typically for 15 min, at room temperature (˜22° C.). Then, 100 μL of solution from each well was transferred to a 96 well reading plate containing stop solution (100 μL of 2 M H2SO4) in each well. The A450 was measured using a microplate spectrophotometer (Molecular Devices, Sunnyvale, Calif.). […] Each sequence was tested with three replicate enamel coated pellicle substrates.

[5] = test system: pellicle coated bovine enamel; assay: Phage ELISA on pellicle coated bovine enamel (Example 6); format: binding, human; conditions: 10^11 pfu phage, 30 min in vivo pellicle on bovine enamel, normalized to an internal control
Description: as §1, with “29” for “18”, “candidates from Table 5” for “candidates”, “in” for “in a”, “Experiment to determine binding affinity and coverage of each phage on pellicle substrates.” for “Experiment.”
The wells were filled with 1 mL of 10^11 pfu purified phage stock which was prepared by diluting in blocking buffer. […] The non-binding phage was removed by washing 5 times with PBST. […] The conjugate solution was removed and was washed 3 times with PBST.

Molecule: AIEYQHSATTPWTMRTRLPP (Synthetic oral-surface binding peptide) [DenP101]
- O.D.450 (normalized) [1]: 0.467

Molecule: QFNQTSHSFMHGTSGYVPGK (Synthetic oral-surface binding peptide) [DenP105]
- O.D.450 (normalized) [1]: 0.470

Molecule: SMWHDITKRYRNPSEMVSAY (Synthetic oral-surface binding peptide) [DenP107]
- O.D.450 (normalized) [1]: 0.726

Molecule: NTCATSPNSYTCSN (Synthetic oral-surface binding peptide) [BoEn 6]
- O.D.450 [2]: 2.38

Molecule: GGMGALESYRQWNHLA (Synthetic oral-surface binding peptide) [DenP113]
- O.D.450 (normalized) [1]: 1.348

Molecule: SDCTAGLVPPLCAT (Synthetic oral-surface binding peptide) [BoEn 7]
- O.D.450 [2]: 0.892

Molecule: GVHQYSRPTVPSYLWTSGQH (Synthetic oral-surface binding peptide) [DenP103]
- O.D.450 (normalized) [1]: 0.879

Molecule: DGYKLQTSLDWQMWNP (Synthetic oral-surface binding peptide) [DenP111]
- O.D.450 (normalized) [1]: 1.051

Molecule: VGTMKQHPTTTQPPRVSATN (Synthetic oral-surface binding peptide) [BoEn 9]
- O.D.450 [2]: 0.568

Molecule: THGNKHQSWTYPSEINHKNY (Synthetic oral-surface binding peptide) [DenP108]
- O.D.450 (normalized) [1]: 1.149

Molecule: GYGQYVSQQTWAHSNK (Synthetic oral-surface binding peptide) [DenP115]
- O.D.450 (normalized) [1]: 0.501

Molecule: NQQMKLVPQHWHRAQP (Synthetic oral-surface binding peptide) [DenP119]
- O.D.450 (normalized) [1]: 1.051

Molecule: NLHSPWPSHAAHHWST (Synthetic oral-surface binding peptide) [DenP118]
- O.D.450 (normalized) [1]: 0.641

Molecule: MPGHQESIKVQNWNRV (Synthetic oral-surface binding peptide) [DenP117]
- O.D.450 (normalized) [1]: 0.433

Molecule: YSETPNDQKPNPHYKVSGTK (Synthetic oral-surface binding peptide) [BoEn 10]
- O.D.450 [2]: 3.942

Molecule: PHMASMTGGQQMGSYSETPNDQKPNPHYKVSGTKGPEEAAKKEEAAKKPAYSETPNDQKPNPHYKVSGTKGSGGGGSGSGGGGSLNSMSDKHHGHQNTATRNQHGGGLNSMSDKHHGHQNTATRNQHGGHHHHHH [DE008]
- Particles per um^2 at 5000X [3]: 0.31 Particles per um^2

Molecule: WHEPHQFSGENTDYSSSMGT (Synthetic oral-surface binding peptide) [DenP109]
- O.D.450 (normalized) [1]: 0.716

Molecule: LNDQRKPGPPTMPTHSPAVG (Synthetic oral-surface binding peptide) [BoEn 5]
- O.D.450 [2]: 0.944

Molecule: SSRPAPPTYQTASYPHNLPSKRKMK(Biotin) [DenP28-A]
- O.D.450 (normalized) [4]: 0.811

Molecule: TTYHYKNIYQESYQQRNPAV (Synthetic oral-surface binding peptide) [DenP3]
- O.D.450 (normalized) [5]: 2.495
- O.D.450 (normalized) [1]: 1.000

Molecule: SSRPTYQGVPSWPAVIDDAIRRK(Biotin) [DenP19-A]
- O.D.450 (normalized) [4]: 0.712

Molecule: SSRPQAAQVHMMQHSRPTTK(Biotin) [DenP13-A]
- O.D.450 (normalized) [4]: 0.699

Molecule: SSRPSEARARTFNDHTTPMPIIK(Biotin) [DenP14-A]
- O.D.450 (normalized) [4]: 0.269

Molecule: GINKGQRPPWESWHEN (Synthetic oral-surface binding peptide) [DenP114]
- O.D.450 (normalized) [1]: 0.703

Molecule: FPSKWYNHHRHITGHV (Synthetic oral-surface binding peptide) [DenP112]
- O.D.450 (normalized) [1]: 0.413

Molecule: SSRPELDHDSRHYMNGLQRKVTK(Biotin) [DenP15-A]
- O.D.450 (normalized) [4]: 0.460

Molecule: SSRPHDPNHLTHQARTIYRNANHTK(Biotin) [DenP23-A]
- O.D.450 (normalized) [4]: 0.850

Molecule: SSRPGPQHVLMQDTHQGYAFDNK(Biotin) [DenP16-A]
- O.D.450 (normalized) [4]: 0.309

Molecule: EFYPFAEVPPEKSGIGRQVF (Synthetic oral-surface binding peptide) [DenP102]
- O.D.450 (normalized) [1]: 0.520

Molecule: GYQPHYVDHTIGWQPMIRPN (Synthetic oral-surface binding peptide) [DenP104]
- O.D.450 (normalized) [1]: 0.790

Molecule: SSRPEFPYYNDNPPNPERHTLRK(Biotin) [DenP7-A]
- O.D.450 (normalized) [4]: 0.356

Molecule: SSRPQVPDYLSPTHQKKAFLEIPTK(Biotin) [DenP29-A]
- O.D.450 (normalized) [4]: 0.468

Molecule: HDHLSWWGQFDRQNLL (Synthetic oral-surface binding peptide) [DenP116]
- O.D.450 (normalized) [1]: 1.055

Molecule: SFSWHRGDWELGHQSKTMGM (Synthetic oral-surface binding peptide) [DenP106]
- O.D.450 (normalized) [1]: 1.524

Molecule: AANPHTEWDRDAFQLAMPPK (Synthetic oral-surface binding peptide) [BoEn 1]
- O.D.450 [2]: 1.402

B1: PGSGGGGSPYSETPNDQKPNPHYKVSGTKGPEPEPEPEPIPEPPKEAPVVIEKPKPKPKPKPKPPAYSETPNDQKPNPHYKVSGTKGPGGHHHHHH (peptide)
chain: PGSGGGGSPYSETPNDQKPNPHYKVSGTKGPEPEPEPEPIPEPPKEAPVVIEKPKPKPKPKPKPPAYSETPNDQKPNPHYKVSGTKGPGGHHHHHH
modifications: Synthetic peptide composition
- Particles per um^2 at 5000X [3]: 0.39 Particles per um^2

B2: PGSGGGGSPYSETPNDQKPNPHYKVSGTKGPEEAAKKEEAAKKPAYSETPNDQKPNPHYKVSGTKGPGGHHHHHH (peptide)
chain: PGSGGGGSPYSETPNDQKPNPHYKVSGTKGPEEAAKKEEAAKKPAYSETPNDQKPNPHYKVSGTKGPGGHHHHHH
modifications: Synthetic peptide composition
- Bead coverage by electron microscopy (in words) ([3]; Co-NTA beads, SEM 1000×, 2500×, 5000×): bead binding at a lower degree than the other samples
- Particles per um^2 at 5000X [3]: 0.17 Particles per um^2
